Patent publication US20230037905A1 (Vyne Therapeutics Inc., priority 2019, published 2023)
Counter-ions that a name gives are not always drawn. Each block holds one compound with its values, some of them ahead of it.

Tests used:
[1] = tested on: Reconstructed Human Epidermis (RHE) tissues exposed to Th2 cytokines IL-4, IL-13, IL-25; assay: Reconstructed Human Epidermis (RHE) Th2 AD model (StratiCELL); type: cell-based; conditions: 48 h
Procedure: Reconstructed Human Epidermis (RHE) tissues are produced and grown by StratiCELL. To generate the morphological and functional aspects of AD, RHE samples are exposed to Th2 cytokines IL-4, IL-13, IL-25. Th-2 cytokines are applied for 48 h in the culture medium of epidermis. Test formulations are applied simultaneously with the cytokines on the stratum corneum of the epidermis during the same 48 h. The tissue morphology is assessed by histology and hemalum/eosin (H/E) staining—quantification of a fluorescent dye (biotin) diffusion through the epidermis in order to evaluate the barrier function.

[2] = Stability of Tofacitinib Citrate solution in 50 mM citrate buffer of different pH at 60° C.; type: physicochemical; parameters: unit not given here
[3] = Compatibility test of tofacitinib citrate with excipients at 60° C.; type: physicochemical; parameters: TOF assay: unit not given here; conditions: 10 weeks at 60° C.
Procedure: The mixtures are tightly closed and exposed to 60° C. protected from light.

[4] = Stability of Tofacitinib Citrate solution in 50 mM citrate buffer of different pH at 60° C.; type: physicochemical; parameters: unit not given here; remark: listed apart in the source
Excerpt: In one or more embodiments the pH, is about 4, about 4.1, about 4.2, about 4.3, about 4.4, about 4.5, about 4.6, about 4.7, about 4.8, about 4.9 or about 5.

[5] = Solubility test (saturated solutions, HPLC); type: physicochemical
Procedure: An additional analysis is performed after 48 hours of agitation to confirm the determined saturated concentration.

[6] = in vivo; parameters: species or system Minipigs; conditions: minipig, Tofacitinib concentration
Procedure: Minipigs are treated topically on 10% body surface area, once daily for 14 days with the tested formulation.

[7] = Chemical stability of formulations (HPLC); type: physicochemical
Procedure: Where another active agent such as fingolimod is present in the formulations the samples are analysed for that active agent and its degradation products by HPLC. […] The gradient elution is employed.

[8] = target: S1P receptors (S1P1 and S1P3-5); conditions: four of the five S1P receptors (S1P1 and S1P3-5); read-out: affinity; cited from earlier work
[9] = in Water + Carboxymethylcellulose
[10] = in Water + Glyceryl Monosteatate

Structure (SMILES): CCCCCCCCc1ccc(CCC(N)(CO)CO)cc1 [Fingolimod, 2-amino-2-[2-(4-octylphenyl)ethyl]propane-1,3-diol]
barrier function (biotin immunofluorescence) ([1]; 0.001% w/w): reduced the Th2-induced barrier alteration | tissue morphology (histology, H/E staining) ([1]; 0.001% w/w): reduced the Th2-induced barrier alteration | barrier function (biotin immunofluorescence) ([1]; 0.01% w/w): reduced the Th2-induced barrier alteration | tissue morphology (histology, H/E staining) ([1]; 0.01% w/w): reduced the Th2-induced barrier alteration | tissue morphology (histology, H/E staining) ([1]; 0.1% w/w): increased fragilization was observed with junction/adhesion loss and disorganization of cell layers | barrier function (biotin immunofluorescence) ([1]; 0.1%): Increased barrier alteration | tissue morphology (histology, H/E staining) ([1]; 1% w/w): increased fragilization was observed with junction/adhesion loss and disorganization of cell layers | barrier function (biotin immunofluorescence) ([1]; 1%): Increased barrier alteration

RRT 0.48 (impurity) ([2]; pH 3, 1 w): 0.10 | RRT 0.89 (impurity) ([2]; pH 3, 1 w): 0.10 | TOF assay ([2]; pH 3, 1 w): 93.92 | RRT 0.40 (impurity) ([2]; pH 3, 2 w): 0.09 | RRT 0.48 (impurity) ([2]; pH 3, 2 w): 0.11 | RRT 0.89 (impurity) ([2]; pH 3, 2 w): 0.09 | RRT 1.42 (impurity) ([2]; pH 3, 2 w): 0.09 | TOF assay ([2]; pH 3, 2 w): 100.09 | Imp B ([2]; pH 4, 1 w): 0.09 | TOF assay ([2]; pH 4, 1 w): 102.57 | RRT 1.42 (impurity) ([2]; pH 5, 1 w): 0.14 | RRT 0.80 (impurity) ([2]; pH 5, 2 w): 0.08 | TOF assay ([2]; pH 6, 1 w): 99.67 | RRT 0.89 (impurity) ([2]; pH 6, 2 w): 0.09 | TOF assay ([2]; pH 6, 2 w): 100.09 | Deg. products ([3]; in MCT oil): 0.09 | TOF assay ([3]; in MCT oil): 108.4 | Deg. products [3, 9]: 9.33 | TOF assay [3, 9]: 48.1 | Deg. products ([3]; in Water + Ceteareth 20): 4.57 | TOF assay ([3]; in Water + Ceteareth 20): 67.7 | Deg. products ([3]; in Water + Glycerin): 10.16 | TOF assay ([3]; in Water + Glycerin): 63.9 | Deg. products [3, 10]: 2.62 | TOF assay [3, 10]: 75.6 | Deg. products ([3]; in Water + Hypermellose K100M): 4.64 | TOF assay ([3]; in Water + Hypermellose K100M): 14.2 | Deg. products ([3]; in Water + Methyl Paraben): 4.14 | TOF assay ([3]; in Water + Methyl Paraben): 81.6 | Deg. products ([3]; in Water + Propyl Paraben): 3.01 | TOF assay ([3]; in Water + Propyl Paraben): 93.0 | Deg. products ([3]; in Water + Stearic Acid): 3.64 | TOF assay ([3]; in Water + Stearic Acid): 79.4 | Deg. products ([3]; in Water + Stearyl Alcohol): 2.21 | TOF assay ([3]; in Water + Stearyl Alcohol): 73.1 | Deg. products ([3]; in Water + Xanthan Gum): 28.23 | TOF assay ([3]; in Water + Xanthan Gum): 7.7 | Deg. products ([3]; in Water): 1.90 | TOF assay ([3]; in Water): 106.7 | TOF assay ([4]; pH 4, 2 w): 106.31 | TOF assay ([4]; pH 4.5, 1 w): 108.64 | TOF assay ([4]; pH 4.5, 2 w): 99.84 | RRT 1.42 (impurity) ([4]; pH 5, 2 w): 0.14 | TOF assay ([4]; pH 5, 2 w): 101.02 | Solubility of TOF Citrate ([5]; in 0.02% HCl): 4.06 mg/g | Solubility of TOF Citrate ([5]; in 0.05% NaOH (degraded)): not detected | Solubility of TOF Citrate ([5]; in Benzyl Alcohol): 0.81 mg/g | Solubility of TOF Citrate ([5]; in DMSO): >150 mg/g | solubilized tofacitinib citrate concentration ([5]; in DMSO): > 15% | Solubility of TOF Citrate ([5]; in Diisopropyl adipate): 0.02 mg/g | Solubility of TOF Citrate ([5]; in Dimethyl isosorbate): 1.27 mg/g | Solubility of TOF Citrate ([5]; in Ethanol): 0.61 mg/g | Solubility of TOF Citrate ([5]; in Glycerin): 0.97 mg/g | Solubility of TOF Citrate ([5]; in Hexylene Glycol): 0.25 mg/g | Solubility of TOF Citrate ([5]; in Isopropyl Alcohol): 0.24 mg/g | Solubility of TOF Citrate ([5]; in Isopropyl myristate): <0.02 mg/g | Solubility of TOF Citrate ([5]; in MCT oil (Caprylic/capric triglycerides)): <0.01 mg/g | Solubility of TOF Citrate ([5]; in Oleyl alcohol): 0.09 mg/g | Solubility of TOF Citrate ([5]; in PPG-11 Stearyl ether): 0.02 mg/g | Solubility of TOF Citrate ([5]; in Propylene Glycol): 1.70 mg/g | Solubility of TOF Citrate ([5]; in Transcutol): 2.01 mg/g | Solubility of TOF Citrate ([5]; in Water): 2.77 mg/g | Solubility of TOF Citrate ([5]; in polyethylene glycol 200): 5.16 mg/g | solubilized tofacitinib citrate concentration ([5]; in polyethylene glycol 200): about 0.5% | Solubility of TOF Citrate ([5]; in polyethylene glycol 400): 6.96 mg/g | solubilized tofacitinib citrate concentration ([5]; in polyethylene glycol 400): about 0.7%
Structure (SMILES): C[C@@H]1CCN(C(=O)CC#N)C[C@@H]1N(C)c1ncnc2[nH]ccc12 [Tofacitinib citrate]

concentration at 4 h [6]: 1.48 ng/mL | concentration at 8 h [6]: 1.32 ng/mL | concentration at 24 h [6]: 0.688 ng/mL
Structure (SMILES): C[C@@H]1CCN(C(=O)CC#N)C[C@@H]1N(C)c1ncnc2[nH]ccc12 [Tofacitinib]

Structure (SMILES): CCCCCCCCc1ccc(CCC(N)(CO)CO)cc1 [fingolimod hydrochloride, Fingolimod hydrochloride]
chemical stability of active agent in formulation [7]: stable at 5° C., 40 °C and 50 °C

Structure (SMILES): CCCCCCCCc1ccc(CC[C@](N)(CO)COP(=O)(O)O)cc1 [fingolimod-phosphate]
Kd [8]: 0.3 to 3.1 nM
